Measured values: ChEMBL document CHEMBL4251708, “Synthesis and Biological Screening of Pyrano[3,2-c]quinoline Analogues as Anti-inflammatory and Anticancer Agents” (ACS Med Chem Lett, 2018)
Activity calls are given as the source filed them. The calls are words filed in the database; no cut-off is given here.

Legend:
THP-1 [1] = test: Antiinflammatory activity in PMA-differentiated human THP1 cells assessed as inhibition of LPS-induced IL-6 production at 10 uM after 24 hrs by ELISA relative to control; assay type: functional; details: THP-1, 24 h
THP-1 [2] = test: Antiinflammatory activity in PMA-differentiated human THP1 cells assessed as inhibition of LPS-induced TNF-alpha production after 24 hrs by ELISA; assay type: functional, cell-based; details: THP-1, 24 h
MIA PaCa-2 = test: Antiproliferative activity against human MIAPaCa2 cells at 10 uM relative to control; assay type: functional
Calu-1 [3] = test: Antiproliferative activity against human Calu1 cells after 48 hrs by propidium iodide staining based fluorometry; assay type: functional, cell-based; details: Calu-1, 48 h
ACHN [4] = test: Antiproliferative activity against human ACHN cells after 48 hrs by propidium iodide staining based fluorometry; assay type: functional, cell-based
NCI-H460 [5] = test: Antiproliferative activity against human H460 cells after 48 hrs by propidium iodide staining based fluorometry; assay type: functional, cell-based; details: NCI-H460, 48 h
THP-1 [6] = test: Antiinflammatory activity in PMA-differentiated human THP1 cells assessed as inhibition of LPS-induced IL-6 production at 1 uM after 24 hrs by ELISA relative to control; assay type: functional; details: THP-1, 24 h
THP-1 [7] = test: Antiinflammatory activity in PMA-differentiated human THP1 cells assessed as inhibition of LPS-induced IL-6 production after 24 hrs by ELISA; assay type: functional, cell-based; details: THP-1, 24 h
HCT-116 [8] = test: Antiproliferative activity against human HCT116 cells after 48 hrs by propidium iodide staining based fluorometry; assay type: functional, cell-based; details: HCT-116, 48 h
PBMC = test: Antiinflammatory activity in human PBMC assessed as inhibition of LPS-induced TNF-alpha production incubated for 30 mins followed by LPS addition measured after 4.5 hrs by ELISA; assay type: functional, cell-based
THP-1 (Homo sapiens) [9] = test: Antiinflammatory activity in human THP1 cells assessed as inhibition of IL-6 production at 10 uM relative to control; set-up: scale not given: the % may be the effect or the level left
[10] = tested on: MIA PaCa-2 (Homo sapiens); test: Antiproliferative activity against human MIA PaCa-2 cells at 1 uM relative to control
THP-1 (Homo sapiens) [11] = test: Antiinflammatory activity in human THP1 cells assessed as inhibition of TNF-alpha production at 10 uM relative to control; set-up: scale not given: the % may be the effect or the level left
[12] = tested on: MDA-MB-231 (Homo sapiens); test: Antiproliferative activity against human MDA-MB-231 cells at 10 uM relative to control
THP-1 [13] = test: Cytotoxicity against PMA-differentiated human THP1 cells assessed as reduction in cell viability after 4.5 hrs by MTS assay; assay type: cell-based; details: THP-1, 4.5 h
ACHN (Homo sapiens) [14] = test: Antiproliferative activity against human ACHN cells at 10 uM relative to control
THP-1 [15] = test: Antiinflammatory activity in PMA-differentiated human THP1 cells assessed as inhibition of LPS-induced TNF-alpha production at 1 uM after 24 hrs by ELISA relative to control; assay type: functional; details: THP-1, 24 h
[16] = tested on: MDA-MB-231 (Homo sapiens); test: Antiproliferative activity against human MDA-MB-231 cells at 1 uM relative to control; details: mda-mb-231, 1 µM
A-549 (Homo sapiens) = test: Antiproliferative activity against human A-549 cells at 10 uM relative to control
PANC-1 [17] = test: Antiproliferative activity against human PANC1 cells after 48 hrs by propidium iodide staining based fluorometry; assay type: functional, cell-based; details: PANC-1, 48 h
ACHN (Homo sapiens) [18] = test: Antiproliferative activity against human ACHN cells at 1 uM relative to control
THP-1 [19] = test: Antiinflammatory activity in PMA-differentiated human THP1 cells assessed as inhibition of LPS-induced TNF-alpha production at 10 uM after 24 hrs by ELISA relative to control; assay type: functional; details: THP-1, 24 h
ACHN [20] = test: Antiproliferative activity against human ACHN cells at 10 uM relative to control; assay type: functional
ACHN [21] = test: Antiproliferative activity against human ACHN cells at 500 nM after 48 hrs by propidium iodide staining based fluorometry relative to control; assay type: functional
NCI-H460 [22] = test: Antiproliferative activity against human H460 cells at 500 nM after 48 hrs by propidium iodide staining based fluorometry relative to control; assay type: functional
HCT-116 [23] = test: Antiproliferative activity against human HCT116 cells at 500 nM after 48 hrs by propidium iodide staining based fluorometry relative to control; assay type: functional
PANC-1 [24] = test: Antiproliferative activity against human PANC1 cells at 500 nM after 48 hrs by propidium iodide staining based fluorometry relative to control; assay type: functional
Calu-1 [25] = test: Antiproliferative activity against human Calu1 cells at 500 nM after 48 hrs by propidium iodide staining based fluorometry relative to control; assay type: functional
NCI-H460 [26] = test: Antiproliferative activity against human H460 cells at 700 nM after 48 hrs by propidium iodide staining based fluorometry relative to control; assay type: functional
Calu-1 [27] = test: Antiproliferative activity against human Calu1 cells at 700 nM after 48 hrs by propidium iodide staining based fluorometry relative to control; assay type: functional
PANC-1 [28] = test: Antiproliferative activity against human PANC1 cells at 700 nM after 48 hrs by propidium iodide staining based fluorometry relative to control; assay type: functional
HCT-116 [29] = test: Antiproliferative activity against human HCT116 cells at 700 nM after 48 hrs by propidium iodide staining based fluorometry relative to control; assay type: functional
ACHN [30] = test: Antiproliferative activity against human ACHN cells at 700 nM after 48 hrs by propidium iodide staining based fluorometry relative to control; assay type: functional

Row | Structure (SMILES) | inhibition at 10 µM (THP-1 [1]) [%] | IC50 (THP-1 [2]) [nM] | Activity (MIA PaCa-2) [%] | IC50 (Calu-1 [3]) [nM] | IC50 (ACHN [4]) [nM] | IC50 (NCI-H460 [5]) [nM] | inhibition at 1 µM (THP-1 [6]) [%] | IC50 (THP-1 [7]) [nM] | IC50 (HCT-116 [8]) [nM] | Activity (THP-1 (Homo sapiens) [9]) [%] | Activity [10] [%] | Activity (THP-1 (Homo sapiens) [11]) [%] | IC50 (THP-1 [13]) [µM] | Activity (ACHN (Homo sapiens) [14]) [%] | inhibition at 1 µM (THP-1 [15]) [%] | Activity [16] [%] | Activity (A-549 (Homo sapiens)) [%] | IC50 (PANC-1 [17]) [nM] | Activity (ACHN (Homo sapiens) [18]) [%] | inhibition at 10 µM (THP-1 [19]) [%] | also measured
1 | Cn1c(=O)c2c(c3ccccc31)OC(N)=C(C#N)C2c1cccc([N+](=O)[O-])c1 (centres undefined) | 79 | 300 | 70 | 1100 | 1600 | 1900 | 0 | 250 | 6600 | 79 | 65 | 43 | > 10 | 83 | 11 | 53 | 71 | 2500 | 79 | 0 | IC50 (PBMC): 200 nM; inhibition (PBMC): Dose-dependent effect; Activity [12]: 65%
2 | Cn1c(=O)c2c(c3ccccc31)OC(N)=C(C#N)C2c1ccccc1 (centres undefined) | 66 | 4900 | 41 | 1200 | 2800 | 1300 | 0 | < 30 | 1000 | 66 | 45 | 0 | > 10 | – | 0 | 0 | – | 1500 | 61 | 0 | inhibition (PBMC): inactive; Activity (ACHN [20]): 82%
3 | Nc1ccn([C@@H]2O[C@H](CO)[C@@H](O)C2(F)F)c(=O)n1 [GEMCITABINE] | – | – | – | – | – | – | – | – | – | – | – | – | – | – | – | – | – | – | – | – | Activity (ACHN [21]): 73%; Activity (NCI-H460 [22]): 71%; Activity (HCT-116 [23]): 73%; Activity (PANC-1 [24]): 74%; Activity (Calu-1 [25]): 79%
4 | Cn1c(=O)c2c(c3ccccc31)OC(N)=C(C#N)C2c1cccc(Br)c1 (centres undefined) | 82 | 500 | 70 | 800 | 900 | 800 | 0 | 80 | 900 | 82 | 61 | 38 | 10 | 75 | 2 | 45 | 78 | 800 | 73 | 0 | IC50 (PBMC): 500 nM; Activity [12]: 54%
5 | Cn1c(=O)c2c(c3ccccc31)OC(N)=C(C#N)C2c1ccc(F)cc1 (centres undefined) | 66 | – | 45 | – | – | – | 0 | – | – | 66 | 16 | 0 | – | 50 | 0 | 0 | 22 | – | 27 | 0 | –
6 | CN1CC[C@H](c2c(O)cc(O)c3c(=O)cc(-c4ccccc4Cl)oc23)[C@H](O)C1 [ALVOCIDIB] | – | – | – | – | – | – | – | – | – | – | – | – | – | – | – | – | – | – | – | – | Activity (NCI-H460 [26]): 88%; Activity (Calu-1 [27]): 74%; Activity (PANC-1 [28]): 78%; Activity (HCT-116 [29]): 71%; Activity (ACHN [30]): 71%
7 | Cn1c(=O)c2c(c3ccccc31)OC(N)=C(C#N)C2c1ccc([N+](=O)[O-])cc1 (centres undefined) | 0 | – | 64 | – | – | – | 0 | – | – | 0 | 15 | 27 | – | 75 | 0 | 0 | 77 | – | 9 | 0 | –
